According to ChEMBL document CHEMBL5223073, “Andrographolide suppresses cisplatin-induced endothelial hyperpermeability through activation of PI3K/Akt and eNOS -derived nitric oxide” (Bioorg Med Chem, 2020):
Active and inactive are the calls of the source. The calls are words filed in the database; no cut-off is given here.

How the values were obtained:
HUVEC [1] = test: Downregulation of cisplatin-induced PKCalpha translocation in HUVEC cells at 30 uM incubated for 15 mins in presence of cisplatin and PI3K inhibitor, wortmannin by Western blot analysis; assay type: functional, cell-based; conditions: Homo sapiens
HUVEC [2] = test: Inhibition of cisplatin-induced store operated Ca2+ release in HUVEC cells at 30 uM preincubated with compound followed by cisplatin stimulation by Fura-2 AM staining based calcium influx assay; assay type: functional, cell-based; conditions: Homo sapiens
HUVEC [3] = test: Induction of NO production in cisplatin-treated HUVEC cells assessed as increase in fluorescence signal at 30 uM preincubated with eNOS inhibitor, N(G)-nitro-L-arginine methyl ester for 3 hrs followed by compound addition and measured immediately by DAF-FM dye based analysis; assay type: functional, cell-based; conditions: Homo sapiens
[4] = target: Transcription factor p65 (Homo sapiens) (UniProt Q04206); test: Inhibition of cisplatin-induced phosphorylation of p65 subunit at Ser536 residue in HUVEC cells at 30 uM preincubated with eNOS inhibitor, N(G)-nitro-L-arginine methyl ester followed by compound addition and further incubated for 1 hr by Western blot analysis; assay type: cell-based
Transcription factor p65 (Homo sapiens), sequence (Q04206 whole entry): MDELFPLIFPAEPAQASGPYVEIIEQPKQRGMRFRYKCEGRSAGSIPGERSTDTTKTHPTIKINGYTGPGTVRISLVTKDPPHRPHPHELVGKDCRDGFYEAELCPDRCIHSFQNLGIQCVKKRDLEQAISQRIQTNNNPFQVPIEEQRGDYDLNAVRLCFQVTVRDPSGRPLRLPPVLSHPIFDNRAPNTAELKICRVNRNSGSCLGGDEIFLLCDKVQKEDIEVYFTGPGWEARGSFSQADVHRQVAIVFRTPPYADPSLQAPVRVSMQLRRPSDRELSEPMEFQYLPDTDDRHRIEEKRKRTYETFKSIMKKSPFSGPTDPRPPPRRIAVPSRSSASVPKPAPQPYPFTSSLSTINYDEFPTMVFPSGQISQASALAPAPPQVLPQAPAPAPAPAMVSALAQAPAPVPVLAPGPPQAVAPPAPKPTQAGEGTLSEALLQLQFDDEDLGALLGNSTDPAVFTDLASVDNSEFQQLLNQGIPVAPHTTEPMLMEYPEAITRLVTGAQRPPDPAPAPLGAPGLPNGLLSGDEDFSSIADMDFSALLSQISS

HUVEC [5] = test: Inhibition of cisplatin-induced TRPC1 phosphorylation in [32P] orthophosphate labeled HUVEC cells at 30 uM incubated for 15 mins in presence of cisplatin and eNOS inhibitor, N(G)-nitro-L-arginine methyl ester by Western blot analysis; assay type: cell-based; conditions: Homo sapiens
[6] = target: T1, NF-kappa-B inhibitor alpha (Homo sapiens) (UniProt P25963); test: Inhibition of cisplatin-induced phosphorylation of IkappaBalpha at Ser32/36 residue in HUVEC cells at 30 uM preincubated with eNOS inhibitor, N(G)-nitro-L-arginine methyl ester followed by compound addition and further incubated for 1 hr by Western blot analysis; assay type: cell-based
T1 sequence (whole entry): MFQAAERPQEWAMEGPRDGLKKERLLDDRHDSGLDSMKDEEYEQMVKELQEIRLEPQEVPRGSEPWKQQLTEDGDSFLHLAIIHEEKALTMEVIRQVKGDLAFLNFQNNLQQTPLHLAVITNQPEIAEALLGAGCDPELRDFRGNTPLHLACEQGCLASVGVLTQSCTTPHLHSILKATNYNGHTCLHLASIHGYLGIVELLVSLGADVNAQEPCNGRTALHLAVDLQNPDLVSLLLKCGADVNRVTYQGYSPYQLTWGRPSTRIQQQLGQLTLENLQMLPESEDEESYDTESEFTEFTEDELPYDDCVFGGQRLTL

HUVEC [7] = test: Inhibition of cisplatin-induced TRPC1 phosphorylation in [32P] orthophosphate labeled HUVEC cells at 30 uM incubated for 15 mins in presence of cisplatin and PI3K inhibitor, wortmannin by Western blot analysis; assay type: cell-based; conditions: Homo sapiens
HUVEC [8] = test: Improvement in cisplatin-induced endothelial monolayer integrity in HUVEC cells assessed as reduction in transmembrane movement of albumin at 30 uM preincubated with compound in presence of PI3K inhibitor, wortmannin followed by cisplatin stimulation and measured after 2 hrs; assay type: functional, cell-based; conditions: Homo sapiens
HUVEC [9] = test: Inhibition of cisplatin-induced ICAM-1 protein expression in HUVEC cells preincubated for 30 mins followed by cisplatin addition and measured after 24 hrs by Western blot analysis; assay type: functional, cell-based; conditions: Homo sapiens, dose 10-30 µM, time 24.5 hrs
U-937 = test: Inhibition of cisplatin-induced ICAM1 dependent HUVEC cells adhesion to human U-937 cells at 10 to 30 uM preincubated with HUVEC cells for 4.5 hrs in presence of cisplatin and PI3K inhibitor, wortmannin followed by U-937 cell suspension addition and measured after 1 hr by BCECF fluorescent probe based assay; assay type: functional; conditions: dose 10-30 µM, time 5.5 hrs
[10] = target: T2, Nitric oxide synthase 3 (Homo sapiens) (UniProt P29474); test: Activation of eNOS activity in cisplatin-treated HUVEC cells assessed as increase in eNOS phosphorylation at Ser1177 residue at 30 uM preincubated with eNOS inhibitor, N(G)-nitro-L-arginine methyl ester followed by compound addition measured after 5 to 240 mins by Western blot analysis; assay type: cell-based; conditions: time 5-240 min
T2 sequence (whole entry): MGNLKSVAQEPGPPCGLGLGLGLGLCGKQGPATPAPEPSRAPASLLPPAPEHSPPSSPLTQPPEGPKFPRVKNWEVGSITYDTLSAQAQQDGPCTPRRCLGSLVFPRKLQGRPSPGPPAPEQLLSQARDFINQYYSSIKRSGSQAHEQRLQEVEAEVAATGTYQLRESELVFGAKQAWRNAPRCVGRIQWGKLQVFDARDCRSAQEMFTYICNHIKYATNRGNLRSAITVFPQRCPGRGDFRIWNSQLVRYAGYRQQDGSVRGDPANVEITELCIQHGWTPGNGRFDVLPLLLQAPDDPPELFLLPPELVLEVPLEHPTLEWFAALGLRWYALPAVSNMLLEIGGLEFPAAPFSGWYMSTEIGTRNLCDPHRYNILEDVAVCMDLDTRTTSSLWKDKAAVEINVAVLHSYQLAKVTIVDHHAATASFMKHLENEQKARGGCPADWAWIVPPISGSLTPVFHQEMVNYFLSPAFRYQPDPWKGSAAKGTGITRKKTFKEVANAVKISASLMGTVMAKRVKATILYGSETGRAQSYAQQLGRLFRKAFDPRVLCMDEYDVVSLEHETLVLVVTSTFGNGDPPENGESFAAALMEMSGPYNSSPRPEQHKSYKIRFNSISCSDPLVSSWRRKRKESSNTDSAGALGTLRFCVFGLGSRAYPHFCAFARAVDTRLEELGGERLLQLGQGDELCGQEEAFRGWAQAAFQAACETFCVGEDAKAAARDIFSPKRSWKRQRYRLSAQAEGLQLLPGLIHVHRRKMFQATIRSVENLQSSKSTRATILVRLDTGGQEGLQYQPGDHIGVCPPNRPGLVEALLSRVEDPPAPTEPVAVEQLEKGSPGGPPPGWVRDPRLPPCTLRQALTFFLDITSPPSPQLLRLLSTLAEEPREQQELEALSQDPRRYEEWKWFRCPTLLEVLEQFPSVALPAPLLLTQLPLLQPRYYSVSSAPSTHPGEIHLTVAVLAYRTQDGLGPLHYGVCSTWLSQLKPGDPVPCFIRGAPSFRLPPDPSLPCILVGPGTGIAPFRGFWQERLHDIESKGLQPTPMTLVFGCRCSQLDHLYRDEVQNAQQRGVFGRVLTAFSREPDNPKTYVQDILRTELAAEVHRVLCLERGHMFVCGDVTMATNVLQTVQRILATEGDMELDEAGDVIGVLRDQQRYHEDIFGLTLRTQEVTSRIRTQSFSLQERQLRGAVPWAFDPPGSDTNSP

[11] = target: T1, NF-kappa-B inhibitor alpha (Homo sapiens); test: Inhibition of cisplatin-induced phosphorylation of IkappaBalpha at Ser32/36 residue in HUVEC cells at 30 uM incubated for 1 hr by Western blot analysis; assay type: cell-based
HUVEC [12] = test: Downregulation of cisplatin-induced ICAM1 protein expression in HUVEC cells at 30 uM incubated for 1 hr by Western blot analysis; assay type: functional, cell-based; conditions: Homo sapiens
[13] = target: Transcription factor p65 (Homo sapiens) (UniProt Q04206); test: Inhibition of cisplatin-induced phosphorylation of p65 subunit at Ser536 residue in HUVEC cells at 30 uM incubated for 1 hr by Western blot analysis; assay type: cell-based
HUVEC [14] = test: Inhibition of cisplatin-induced store operated Ca2+ release in HUVEC cells at 30 uM preincubated with compound in presence of PI3K inhibitor, wortmannin followed by cisplatin stimulation by Fura-2 AM staining based calcium influx assay; assay type: functional, cell-based; conditions: Homo sapiens

inhibition [4]: inactive | inhibition [6]: inactive | Activity [10]: inactive | inhibition [11]: Active | inhibition [13]: Active
Structure (SMILES): C=C1CC[C@@H]2[C@](C)(CO)[C@H](O)CC[C@@]2(C)[C@@H]1C/C=C1/C(=O)OC[C@H]1O [ANDROGRAPHOLIDE]
Activity (HUVEC [1]): inactive | inhibition (HUVEC [2]): Active | Activity (HUVEC [3]): inactive | inhibition (HUVEC [5]): inactive | inhibition (HUVEC [7]): inactive | Activity (HUVEC [8]): inactive | inhibition (HUVEC [9]): Dose-Dependent Effect | inhibition (U-937): inactive | Activity (HUVEC [12]): Active | inhibition (HUVEC [14]): inactive
